Several values for one entry are separate records, joined by “and”; a condition that tells them apart may be missing. Equal entries are not always repeated.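 Each compound was tested at five concentrations against cells in 96-well plates for 48 hours. GI50 is the concentration that inhibits growth by half. TGI denotes the concentration required for complete inhibition of growth.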
Legend:
Assay in all cases: growth of human tumour cells (NCI), 48 h
MALME-3M melanoma = system: MALME-3M melanoma
T-47D breast = system: T-47D breast
NCI-H23 lung = system: NCI-H23 lung
HOP-92 NSCLC = system: HOP-92 NSCLC
SR leukemia = system: SR leukemia
PC-3 prostate = system: PC-3 prostate
RXF 393 renal = system: RXF 393 renal
HCT-15 colon = system: HCT-15 colon
OVCAR-8 ovarian = system: OVCAR-8 ovarian
A549 NSCLC = system: A549 NSCLC

Compound | TGI (MALME-3M melanoma) | TGI (T-47D breast) | TGI (NCI-H23 lung) | TGI (HOP-92 NSCLC) | TGI (SR leukemia) | TGI (PC-3 prostate) | TGI (RXF 393 renal) | TGI (HCT-15 colon) | TGI (OVCAR-8 ovarian) | TGI (A549 NSCLC) | GI50 (MALME-3M melanoma) | GI50 (T-47D breast) | GI50 (HOP-92 NSCLC) | GI50 (PC-3 prostate) | GI50 (RXF 393 renal) | GI50 (HCT-15 colon) | GI50 (OVCAR-8 ovarian) | GI50 (A549 NSCLC) | GI50 (NCI-H23 lung) | GI50 (SR leukemia)
Cc1ccc([N+](=O)[O-])c2c(NCC(O)CO)ccnc12 (stereo unspecified) | 44.6 µM | > 100 µM | > 100 µM | > 100 µM | > 100 µM | > 100 µM | > 100 µM | > 100 µM | > 100 µM | > 100 µM | – | – | – | – | – | – | – | – | – | –
OC(CC(O)(C(F)(F)F)C(F)(F)F)c1ccc(C(O)CC(O)(C(F)(F)F)C(F)(F)F)cc1 (stereo unspecified) | 27.6 µM | 31.3 µM | 26.7 µM | 25.9 µM | 40.2 µM | 32.5 µM | 30.7 µM | 42.8 µM | 29.5 µM | 28.6 µM | – | – | – | – | – | – | – | – | – | –
CCC(NC1=NCCO1)c1cccs1 (stereo unspecified) | 25.7 µM | 37 µM | 31.6 µM | 32.6 µM | > 100 µM | 33.9 µM | 33.2 µM | 30.2 µM | 30.3 µM | 28.1 µM | – | – | – | – | – | – | – | – | – | –
O=C1C(=Cc2ccc(Cl)c(Cl)c2)C([O-])=C([P+](c2ccccc2)(c2ccccc2)c2ccccc2)C([O-])=C1[P+](c1ccccc1)(c1ccccc1)c1ccccc1 | 4.9 µM | 15.7 µM | 10 µM | 4.86 µM | 11.6 µM | 3.79 µM | 3.35 µM | 13.8 µM | 6.7 µM | 10.4 µM | – | – | – | – | – | – | – | – | – | –
Fc1cc(-c2cc(-c3ccc4c(c3)OCO4)n[nH]2)c(Cl)cc1Cl | 24.8 µM | 7.79 µM | 7.73 µM | 6.21 µM | > 50.1 µM | 11.1 µM | 4.45 µM | 49.1 µM | 3.41 µM | 7.86 µM | – | – | – | – | – | – | – | – | – | –
OC1C[C@H](c2ccccc2)C2(C(O)c3ccccc3C2O)[C@@H](c2ccccc2)C1 (stereo partly specified) | > 100 µM | > 100 µM | > 100 µM | > 100 µM | 68.1 µM | > 100 µM | > 100 µM | > 100 µM | > 100 µM | > 100 µM | – | – | – | – | – | – | – | – | – | –
COc1ccc(Nc2nc(N)c(C(=O)c3cccs3)s2)cc1 | 64.8 µM | > 64.1 µM | > 100 µM | 89.3 µM | 5.88 µM | > 60.2 µM | 33.8 µM | > 49.1 µM | > 100 µM | > 47.8 µM | – | – | – | – | – | – | – | – | – | –
CCN1CCC(O)(/C=C/c2ccc(C(C)C)cc2)C(C(=O)/C=C/c2ccc(C(C)C)cc2)C1 (stereo unspecified) | 10.5 µM | 6.19 µM | 5.88 µM | 3.69 µM | > 20.9 µM | 11.4 µM | 6.59 µM | 4.63 µM | 4.31 µM | 11.5 µM | – | – | – | – | – | – | – | – | – | –
CCOC(=O)/C=C(\C(=O)OCC)n1ccc(=O)[nH]c1=O | 24.2 µM | 33.1 µM | 32.4 µM | 9.04 µM | 29.7 µM | 30.7 µM | 24.6 µM | 21.5 µM | > 53.4 µM | > 84.5 µM | – | – | – | – | – | – | – | – | – | –
O=C1CC2CCC(C1)S2=O (stereo unspecified) | > 100 µM | > 100 µM | > 100 µM | > 100 µM | > 100 µM | > 100 µM | > 100 µM | > 100 µM | > 100 µM | > 100 µM | – | – | – | – | – | – | – | – | – | –
CC1(C)CCc2c(c(N=Nc3ccc(F)cc3)c3ccccc3c2O)O1 | 68.5 µM | 86.8 µM | > 100 µM | > 100 µM | 77.4 µM | > 100 µM | > 100 µM | > 100 µM | > 100 µM | 32.2 µM | – | – | – | – | – | – | – | – | – | –
CCCCCCCCCCCCCC(=O)N(CCCCCCCCC)CC(O)C(O)C(OC1OC(CO)C(O)C(O)C1O)C(O)CO (stereo unspecified) | 35.7 µM | 39.7 µM | 41.5 µM | 34 µM | 46.2 µM | 54.6 µM | 54.9 µM | 49.7 µM | 39.3 µM | 50.5 µM | – | – | – | – | – | – | – | – | – | –
C=C(c1ccccc1)c1ccccc1-c1cc(-c2ccccc2)cc(-c2ccccc2)n1 | > 100 µM | 61.3 µM | > 100 µM | > 100 µM | > 100 µM | > 100 µM | > 100 µM | > 100 µM | > 100 µM | > 100 µM | – | – | – | – | – | – | – | – | – | –
O=c1[nH]c(=S)c2cc3c(=S)[nH]c(=O)n(CCO)c3nc2n1CCO | > 100 µM | > 100 µM | > 100 µM | > 100 µM | > 100 µM | > 100 µM | > 100 µM | > 100 µM | > 100 µM | > 100 µM | – | – | – | – | – | – | – | – | – | –
O=C(O)CCC(NC(=O)c1ccc(Nc2nc3cc(C(F)(F)F)ccc3nc2C(=O)O)cc1)C(=O)O (stereo unspecified) | > 100 µM | > 100 µM | > 100 µM | > 100 µM | > 100 µM | > 100 µM | > 100 µM | > 100 µM | > 100 µM | > 100 µM | – | – | – | – | – | – | – | – | – | –
CN(C)CCCNCc1cccc2ccccc12 | > 100 µM | > 100 µM | > 100 µM | > 100 µM | 68.5 µM | > 100 µM | > 100 µM | > 100 µM | > 100 µM | > 100 µM | – | – | – | – | – | – | – | – | – | –
C=C(C(=O)O[C@H]1C(=O)C2=C(C)CCC3C(=C)C(=O)O[C@@H]3C2[C@]1(C)O)C1CC[C@]2(C)CCCC(=C)[C@H]2C1 (stereo partly specified) | 16.3 µM and 31.1 µM | 13.1 µM and 5.03 µM | 16.1 µM and 16.8 µM | 14.2 µM and 11.3 µM | > 100 µM | 10.4 µM and 16.8 µM | 2.52 µM and 3.65 µM | 8.77 µM and 12.8 µM | 12.3 µM and 13.1 µM | 12.9 µM and 24.5 µM | 15.5 µM | 2.06 µM | 7.27 µM | 4.08 µM | 1.79 µM | 1.92 µM | 5.67 µM | 5.59 µM | – | –
Cc1sc2nc3n(c(=O)c2c1C)N=CN(c1ccc(F)cc1)C3 | 57.2 µM | > 100 µM | > 100 µM | 83.9 µM | > 100 µM | > 100 µM | > 100 µM | > 100 µM | > 100 µM | > 100 µM | – | – | – | – | – | – | – | – | – | –
COc1ccc(C(=O)/C=C/c2cc(O)c(O)cc2F)c(OC)c1 | 24.6 µM | > 80.3 µM | 26.6 µM | > 100 µM | 14.1 µM | 25.4 µM | 26.7 µM | > 40.9 µM | > 76.6 µM | > 75.4 µM | – | – | – | – | – | – | – | – | – | –
Brc1ccc2c(-c3csc(-c4c[nH]c5ccccc45)n3)c[nH]c2c1 | 31 µM | 66.4 µM | 28.2 µM | 33.3 µM | 21.7 µM | 28.9 µM | 38.8 µM | 28.5 µM | 33.1 µM | 29.2 µM | – | – | – | – | – | 15.2 µM | – | – | 14.5 µM | 6.36 µM
CC(=O)c1c2n(n(-c3ccccc3)c1=O)C(=O)c1nccnc1-2 | > 100 µM | > 100 µM | > 100 µM | > 100 µM | > 100 µM | > 100 µM | > 100 µM | > 100 µM | > 100 µM | > 100 µM | – | – | – | – | – | – | – | – | – | –
CC(C)(C)[Si](C)(C)OCC1OC(n2cnc3c(=O)[nH]c(N)nc32)C(O[Si](C)(C)C(C)(C)C)C1O[Si](C)(C)C(C)(C)C (stereo unspecified) | 4.02 µM | 5.14 µM | 2.9 µM | 7.37 µM | 5.48 µM | 9.79 µM | 4.69 µM | > 100 µM | 11.3 µM | 7.61 µM | – | – | – | – | – | – | – | – | – | –
CCOC(=O)c1c(-c2cccc3ccccc23)c(C#N)c(=S)n(C2OC(COC(C)=O)C(OC(C)=O)C(OC(C)=O)C2OC(C)=O)c1C (stereo unspecified) | > 100 µM | > 100 µM | > 100 µM | > 100 µM | > 100 µM | > 100 µM | > 100 µM | > 100 µM | > 100 µM | > 100 µM | – | – | – | – | – | – | – | – | – | –
Cn1c(O)c(C=Nc2ccccc2Cl)c(=O)n(C)c1=O | > 100 µM | 65.5 µM | > 100 µM | > 100 µM | 55.9 µM | > 100 µM | 45.4 µM | 41.4 µM | > 100 µM | > 100 µM | – | – | – | – | – | – | – | – | – | –
